# Reference: patent US6235712A, “Non-aqueous polar aprotic peptide formulations” (ALZA Corporation, priority 2000, dated 2001)
# Tests used:
# [1] = Gelation of peptides in non-aqueous polar aprotic solvents; assay type: physicochemical; conditions: formulated in non-aqueous polar aprotic solvents; no gelation even after 12 months at 37° C.
# Experimental: No gelation was found even after 12 months at 37° C. […] Thus, these solvents have an anti-gellant effect.
# [2] = aggregation, gelation and fibrillation; cited from earlier work
gelation [1],Compound,physical stability in aqueous solution [2]
do not gel,CC(C)C[C@H](NC(=O)[C@@H](COC(C)(C)C)NC(=O)[C@H](Cc1ccc(O)cc1)NC(=O)[C@H](CO)NC(=O)[C@H](Cc1c[nH]c2ccccc12)NC(=O)[C@H](Cc1cnc[nH]1)NC(=O)[C@@H]1CCC(=O)N1)C(=O)N[C@@H](CCCNC(=N)N)C(=O)N1CCC[C@H]1C(=O)NNC(N)=O [goserelin],–
do not gel,CCNC(=O)[C@@H]1CCCN1C(=O)[C@H](CCCNC(=N)N)NC(=O)[C@H](CC(C)C)NC(=O)[C@@H](CC(C)C)NC(=O)[C@H](Cc1ccc(O)cc1)NC(=O)[C@H](CO)NC(=O)[C@H](Cc1c[nH]c2ccccc12)NC(=O)[C@H](Cc1c[nH]cn1)NC(=O)[C@@H]1CCC(=O)N1 [leuprolide],–
do not gel,calcitonin,physically unstable
